Experiments:
Format in all cases: biochemical
PIP4K2B = target: T1, PIP4K2B (Homo sapiens, UniProt P78356); assay: Trans-FI P kinase assay PIP4K2B (Table 4); details: compounds listed under IC50 bins; read-out: Trans-FI P kinase assays: PIP4K2B IC50
T1 construct: made in house; host or cells: E. coli
T1 sequence (P78356 1-416): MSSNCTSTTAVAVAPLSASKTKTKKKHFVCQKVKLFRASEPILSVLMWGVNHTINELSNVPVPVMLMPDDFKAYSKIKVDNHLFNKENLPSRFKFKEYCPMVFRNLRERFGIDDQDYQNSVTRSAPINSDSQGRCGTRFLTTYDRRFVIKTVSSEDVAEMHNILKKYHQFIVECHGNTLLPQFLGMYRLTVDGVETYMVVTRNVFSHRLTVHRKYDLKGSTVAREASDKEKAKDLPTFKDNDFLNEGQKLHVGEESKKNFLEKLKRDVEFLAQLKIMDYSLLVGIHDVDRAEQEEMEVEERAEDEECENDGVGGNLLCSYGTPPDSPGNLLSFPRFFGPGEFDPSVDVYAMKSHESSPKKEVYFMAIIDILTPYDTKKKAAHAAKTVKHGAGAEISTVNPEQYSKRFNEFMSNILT
Outline: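 Transcreener FI detection (Ex 584/Em 623) of GDP, converted via calibration curve, gives IC50 from residual activity versus log concentration (highest 4.8 μM). Reaction: 80 μM PI5P plus DOPE carrier, 100 μM GTP, 5 nM GST-tagged enzyme, pH 7.3 HEPES with MgCl2 and 5% DMSO, 2 h after 1 h enzyme-compound preincubation at 27° C.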

PIP4K2A [1] = target: T2, PIP4K2A (Homo sapiens, UniProt P48426); assay: Kinase Assay PIP4K2 A (Table 2); design: 4 nM PIP4K2A (full length protein, SignalChem); purchased SignalChem; details: compounds listed under IC50 bins
T2 sequence (P48426 1-406): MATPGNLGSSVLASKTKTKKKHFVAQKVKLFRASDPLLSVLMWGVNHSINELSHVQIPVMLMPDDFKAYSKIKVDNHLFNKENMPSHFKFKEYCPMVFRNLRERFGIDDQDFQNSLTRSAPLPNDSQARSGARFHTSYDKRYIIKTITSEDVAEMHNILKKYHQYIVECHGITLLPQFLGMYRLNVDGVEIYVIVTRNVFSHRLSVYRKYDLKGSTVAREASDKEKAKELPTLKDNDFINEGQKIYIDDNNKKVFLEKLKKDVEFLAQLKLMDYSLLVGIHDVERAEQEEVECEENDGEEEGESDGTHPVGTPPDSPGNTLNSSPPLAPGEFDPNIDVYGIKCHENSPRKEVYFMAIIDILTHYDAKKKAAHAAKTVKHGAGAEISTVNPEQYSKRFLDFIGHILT
Outline: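 Full-length PIP4K2A (4 nM in the added mix, with 100 μM PI(5)P diC8) pre-incubated 15 min at RT with compounds (10-point, 3-fold series) in 20 mM MOPS pH 7.2, 25 mM MgCl2, 0.005% Tween 20. ATP added from a 60 μM solution, 1 h at RT; ADP-Glo luminescence, IC50 fitted from % inhibition versus DMSO.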

PIP4K2A [2] = target: T2, PIP4K2A; assay: ADP-glo kinase assay PIP4K 2A (Table 3); design: made in house; host or cells: E. coli; details: compounds listed under IC50 bins
Outline: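 Full-length PIP4K2A (4 nM in the mix) with 100 μM PI(5)P diC8 pre-incubated 15 min with compound in MOPS pH 7.2, 25 mM MgCl2; ATP added (60 μM solution), 1 h at RT. ADP formed read by ADP-Glo luminescence; 10-point curves versus DMSO controls fitted to IC50.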

| Structure (SMILES) | IC50 (PIP4K2B) | IC50 (PIP4K2A [1]) | IC50 (PIP4K2A [2]) |
| --- | --- | --- | --- |
| CC(O)C(=O)N1CCOc2ncc(Nc3ccc(-c4ccc(N5CCCC5=O)cc4)cn3)cc21 (stereo not drawn) [Example 234, 1-(4-(6-((1-(2-hydroxypropanoyl)-2,3-dihydro-1H-pyrido[2,3-b][1,4]oxazin-7-yl)amino)pyridin-3-yl)phenyl)pyrrolidin-2-one] | 10 to 100 nM | 1 to 10 nM | 1 to 10 nM |
| CN(C)C(=O)c1ccc(-c2ccc(Nc3cnc4c(c3)N(C(=O)CO)CCO4)nc2)cc1 [Example 89, 4-(6-((1-(2-hydroxyacetyl)-2,3-dihydro-1H-pyrido[2,3-b][1,4]oxazin-7-yl)amino)pyridin-3-yl)-N,N-dimethylbenzamide] | 10 to 100 nM | 1 to 10 nM | 10 to 100 nM |
| CN1CCN(c2cncc(Nc3ccc(-c4ccc(N5CCCC5=O)cc4)cn3)c2)S1(=O)=O [Example 174, 1-(4-(6-((5-(5-methyl-1,1-dioxido-1,2,5-thiadiazolidin-2-yl)pyridin-3-yl)amino)pyridin-3-yl)phenyl)pyrrolidin-2-one] | 10 to 100 nM | 1 to 10 nM | 10 to 100 nM |
| O=C(Nc1cncc(Nc2ccc(-c3ccc(N4CCCC4=O)cc3)cn2)c1)c1ccc(=O)[nH]c1 [Example 240, 6-oxo-N-(5-((5-(4-(2-oxopyrrolidin-1-yl)phenyl)pyridin-2-yl)amino)pyridin-3-yl)-1,6-dihydropyridine-3-carboxamide] | 10 to 100 nM | 10 to 100 nM | 100 to 1000 nM |
| CN(C)C(=O)c1ccc(-c2ccc(Nc3cncc(NC(=O)c4cccc(NC(=O)CCOCCOCCN)c4)c3)nc2)cc1 [Example 113, 4-(6-((5-(3-(3-(2-(2-aminoethoxy)ethoxy)propanamido)benzamido)pyridin-3-yl)amino)pyridin-3-yl)-N,N-dimethylbenzamide] | 10 to 100 nM | 10 to 100 nM | 10 to 100 nM |
| CN(C)C(=O)c1ccc(-c2ccc(Nc3cncc(NC(=O)c4ccc5c(c4)COB5O)c3)nc2)cc1 [Example 132, N-(5-((5-(4-(dimethylcarbamoyl)phenyl)pyridin-2-yl)amino)pyridin-3-yl)-1-hydroxy-1,3-dihydrobenzo[c][1,2]oxaborole-5-carboxamide] | 10 to 100 nM | 1 to 10 nM | 10 to 100 nM |
| CN(C)C(=O)c1ccc(-c2ccc(Nc3cnc4c(c3)N(C(=O)c3ccccn3)CCO4)nc2)cc1 [Example 95, N,N-dimethyl-4-(6-((1-picolinoyl-2,3-dihydro-1H-pyrido[2,3-b][1,4]oxazin-7-yl)amino)pyridin-3-yl)benzamide] | 10 to 100 nM | 10 to 100 nM | 10 to 100 nM |
| CC(C)(O)C(=O)N1CCOc2ncc(Nc3ccc(-c4ccc(N5CCCC5=O)cc4)cn3)cc21 [Example 238, 1-(4-(6-((1-(2-hydroxy-2-methylpropanoyl)-2,3-dihydro-1H-pyrido[2,3-b][1,4]oxazin-7-yl)amino)pyridin-3-yl)phenyl)pyrrolidin-2-one] | 10 to 100 nM | 1 to 10 nM | 1 to 10 nM |
| COc1ncc(Nc2ccc(-c3ccc(N4CCCC4=O)cc3)cn2)cc1NC(C)=O [Example 158, N-(2-methoxy-5-((5-(4-(2-oxopyrrolidin-1-yl)phenyl)pyridin-2-yl)amino)pyridin-3-yl)acetamide] | 10 to 100 nM | 100 to 1000 nM | 100 to 1000 nM |

Continued, values first:

| IC50 (PIP4K2B) | IC50 (PIP4K2A [1]) | IC50 (PIP4K2A [2]) | Structure (SMILES) |
| --- | --- | --- | --- |
| 10 to 100 nM | 10 to 100 nM | 100 to 1000 nM | CN(C)C(=O)c1ccc(-c2ccc(Nc3cncc(NC(=O)C4CCOCC4)c3)nc2)cc1 [Example 126, N-(5-((5-(4-(dimethylcarbamoyl)phenyl)pyridin-2-yl)amino)pyridin-3-yl)tetrahydro-2H-pyran-4-carboxamide] |
| 10 to 100 nM | 1 to 10 nM | 1 to 10 nM | CN(C)C(=O)c1ccc(-c2ccc(Nc3cncc(N4CCN(Cc5ccc(NC(=O)CCc6cccc(N)c6)cc5)C4=O)c3)nc2)cc1 [Example 230, 4-(6-((5-(3-(4-(3-(3-aminophenyl)propanamido)benzyl)-2-oxoimidazolidin-1-yl)pyridin-3-yl)amino)pyridin-3-yl)-N,N-dimethylbenzamide] |
| 10 to 100 nM | 1 to 10 nM | 1 to 10 nM | CN(C)C(=O)c1ccc(-c2ccc(Nc3cncc(NC(=O)C4CC4c4ccccc4)c3)nc2)cc1 (stereo not drawn) [Example 138, N,N-dimethyl-4-(6-((5-(2-phenylcyclopropane-1-carboxamido)pyridin-3-yl)amino)pyridin-3-yl)benzamide] |
| 10 to 100 nM | 100 to 1000 nM | 10 to 100 nM | CNC(=O)c1cccc2ncc(Nc3ccc(-c4ccc(N5CCCC5=O)cc4)cn3)cc12 [Example 146, N-methyl-3-((5-(4-(2-oxopyrrolidin-1-yl)phenyl)pyridin-2-yl)amino)quinoline-5-carboxamide] |
| 10 to 100 nM | 10 to 100 nM | 100 to 1000 nM | CN(C)C(=O)c1ccc(-c2ccc(Nc3cncc(NC(=O)c4cccnc4)c3)nc2)cc1 [Example 129, N-(5-((5-(4-(dimethylcarbamoyl)phenyl)pyridin-2-yl)amino)pyridin-3-yl)nicotinamide] |
| > 1000 nM | 100 to 1000 nM | > 1000 nM | CN(C)C(=O)c1ccc(-c2ccc(Nc3ccc(CNC(=O)c4cccc(NC(=O)OC(C)(C)C)c4)nc3)nc2)cc1 [Example 104, tert-butyl (3-(((5-((5-(4-(dimethylcarbamoyl)phenyl)pyridin-2-yl)amino)pyridin-2-yl)methyl)carbamoyl)phenyl)carbamate] |
| 10 to 100 nM | 100 to 1000 nM | 100 to 1000 nM | O=C1C[C@@H](O)CN1c1ccc(-c2ccc(Nc3cnc4c(c3)N3C(=O)CC[C@H]3CO4)nc2)cc1 [Example 236, (S)-2-((5-(4-((R)-4-hydroxy-2-oxopyrrolidin-1-yl)phenyl)pyridin-2-yl)amino)-6,6a,7,8-tetrahydro-9H-pyrido[2,3-b]pyrrolo[1,2-d][1,4]oxazin-9-one] |
| 10 to 100 nM | 100 to 1000 nM | 100 to 1000 nM | CN(C)C/C=C/C(=O)Nc1cccc(C(=O)NCc2ccc(Nc3ccc(-c4ccc(C(=O)N(C)C)cc4)cn3)cn2)c1 [Example 106, (E)-4-(6-((6-((3-(4-(dimethylamino)but-2-enamido)benzamido)methyl)pyridin-3-yl)amino)pyridin-3-yl)-N,N-dimethylbenzamide] |
| 1 to 10 nM | ≤ 1 nM | 1 to 10 nM | CC(C)c1cc(Nc2cnc3c(c2)N2C(=O)CC[C@H]2CO3)ncc1-c1ccc(N2CCCC2=O)cc1 [Example 177, (S)-2-((4-isopropyl-5-(4-(2-oxopyrrolidin-1-yl)phenyl)pyridin-2-yl)amino)-6,6a,7,8-tetrahydro-9H-pyrido[2,3-b]pyrrolo[1,2-d][1,4]oxazin-9-one] |
| 10 to 100 nM | 10 to 100 nM | 10 to 100 nM | CN(C)C(=O)c1ccc(-c2ccc(Nc3cncc(NC(=O)c4ccccc4)c3)nc2)cc1 [Example 121, 4-(6-((5-benzamidopyridin-3-yl)amino)pyridin-3-yl)-N,N-dimethylbenzamide] |
| > 1000 nM | > 1000 nM | > 1000 nM | CN(Cc1cncs1)C(=O)c1ccc(-c2ccc(Nc3cccnc3)nc2)cc1 [Example 71, N-methyl-4-(6-(pyridin-3-ylamino)pyridin-3-yl)-N-(thiazol-5-ylmethyl)benzamide] |
